Experimental data as given in patent publication US7547705B2, “Substituted 8′-pyri(MI)dinyl-dihydrospiro-[cycloalkylamine]-pyrimido[1,2-a]pyrimidin-6-one derivatives” (Sanofi-Aventis, priority 2003, dated 2009).

Target: GSK3β (Homo sapiens, UniProt P49841)
Experiment: Inhibitory activity against GSK3β (33P-ATP phosphorylation of prephosphorylated GS1 peptide, two protocols)
Assay type: biochemical
Details: GS1 peptide / 33P-ATP filter assay; which of the two protocols was used is not stated
Description: Inhibitory activity of the medicament of the present invention against GSK3β: Two different protocols can be used. In a first protocol: 7.5 μM of prephosphorylated GS1 peptide and 10 μM ATP (containing 300,000 cpm of 33P-ATP) were incubated in 25 mM Tris-HCl, pH 7.5, 0.6 mM DTT 6 mM MgCl2, 0.6 mM EGTA, 0.05 mg/ml BSA buffer for 1 hour at room temperature in the presence of GSK3beta (total reaction volume: 100 microliters). In a second protocol: 4.1 μM of prephosphorylated GSI peptide and 42 μM ATP (containing 260,000 cpm 33P-ATP) were incubated in 80 mM Mes-NaOH, pH 6.5, 1 mM Mg acetate, 0.5 mM EGTA, 5 mM 2-mercaptoethanol, 0.02% Tween 20,10% glycerol buffer for 2 hours at room temperature in the presence of GSK3beta. Inhibitors were solubilised in DMSO (final solvent concentration in the reaction medium, 1%). The reaction was stopped with 100 microliters of a solution made of 25 g polyphosphoric acid (85% P2O5), 126 ml 85% H3PO4, H2O to 500 ml and then diluted to 1:100 before use. An aliquot of the reaction mixture was then transferred to Whatman P81 cation exchange filters and rinsed with the solution described above. Incorporated 33P radioactivity was determined by liquid scintillation spectrometry. The phosphorylated GS-1 peptide had the following sequence: NH2-[…](P)EDEE-COOH. […]

GSK3β, sequence (P49841 whole entry, species assumed): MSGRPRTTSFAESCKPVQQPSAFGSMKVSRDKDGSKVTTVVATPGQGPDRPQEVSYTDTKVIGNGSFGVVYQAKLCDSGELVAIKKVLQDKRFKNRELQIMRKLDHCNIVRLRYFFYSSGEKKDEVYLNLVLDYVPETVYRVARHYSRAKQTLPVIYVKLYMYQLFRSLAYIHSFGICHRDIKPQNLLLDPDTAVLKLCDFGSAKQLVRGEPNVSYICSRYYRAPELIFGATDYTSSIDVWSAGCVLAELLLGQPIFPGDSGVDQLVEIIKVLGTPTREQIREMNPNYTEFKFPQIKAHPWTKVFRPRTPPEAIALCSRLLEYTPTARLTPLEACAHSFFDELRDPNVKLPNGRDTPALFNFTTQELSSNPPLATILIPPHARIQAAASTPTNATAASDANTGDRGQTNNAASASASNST

IC50	Compound
7 nM	CN1CCC2(CC1)CCn1c(nc(-c3ccncc3)cc1=O)N2CC(=O)c1ccccc1 [compound No. 4 of table 1, 1-Methyl-1′-(2-oxo-2-phenylethyl)-8′-(pyridin-4-yl)-3′,4′-dihydrospiro[piperidine-4,2′-pyrimido[1,2-a]pyrimidin]-6′(1′H)-one]
6 nM	CN1CCC2(CCn3c(nc(-c4ccncc4)cc3=O)N2CC(=O)c2ccccc2)C1 (centres unmarked) [compound No. 4 of table 2, 1′-Methyl-1-(2-oxo-2-phenylethyl)-8-(pyridin-4-yl)-3,4-dihydrospiro (pyrimido[1,2-a]pyrimidine-2,3′-pyrrolidin]-6(1H)-one]
